Reference: patent US7786095B2, “Amphiphilic macrocyclic derivatives and their analogues” (University College Dublin, priority 2000, dated 2010)
Values joined by “and” are separate entries in the source; they are usually repeats but may differ in a detail not shown here. Identical values can stand only once.

How the values were obtained:
Type in all cases: physicochemical
[1] = Transmission electron microscopy of cyclodextrin vesicles (uranyl acetate negative staining); conditions: prolonged sonication (9 hours), monodisperse solution
Protocol: (§1) The amphiphilic cyclodextrins are dispersed in water by sonication of a thin film (cast by slow rotary evaporation of a solution of the cyclodextrins in chloroform) in a sonication bath. HE-SC12 is sonicated for 2 hours at room temperature and HE-SC16 is sonicated for 2 hours at 50° C. Dynamic light scattering indicates the presence of vesicles with an average diameter of 170 nm. Vesicles of cyclodextrins of 50-300 nm diameter are also observed by transmission electron microscopy using uranyl acetate as a negative staining agent (FIG. 1). Upon prolonged sonication (9 hours) of a solution of HE-SC12, a monodisperse solution of spherical vesicles with an average diameter of 60 nm is obtained (FIG. 2). Thus, the particle size can be directed by sonication time, in order to obtain a size suitable for specific molecular inclusion or specific therapeutic use.

[2] = Carboxyfluorescein entrapment in vesicles: fluorescence increase on Triton X-100 solubilisation; conditions: 1000-fold dilution, 0.1% w/w Triton X-100, two independent preparations
Protocol: (§2) Vesicles of heptakis(6-dodecylthio-2-oligoethylenoxy)-β-cyclodextrin and […] were prepared by sonication in a buffered solution of carboxyfluorescein (CF).
(i) Small aliquots of the solutions of the cyclodextrin vesicles (5-20 mM) were diluted 1000-fold, resulting in immediate dilution of the non-entrapped CF with concomitant intense CF fluorescence, which was measured. The fluorescence of entrapped CF is negligible due to self-quenching. Next, the vesicles in the diluted solution were solubilised by the addition of 0.1% w/w of the detergent Triton X-100, leading to release and dilution of entrapped CF, with concomitant increase of CF fluorescence, which was measured. In this concentration range (ca. […]). The fluorescence intensity of CF correlates linearly with its concentration, and the incremental change of fluorescence upon addition of Triton X-100 is a direct measure of the percentage of entrapped volume of the vesicles relative to the total volume of the solution. The entrapped volume amounted to 7.7+/−1.9% and 11.4+/−2.7% for two independent preparations of HE-SC16; and to 5.0+/−2.4% and 7.2+/−5.3% for two independent preparations of HE-SC12.

[3] = Dynamic light scattering of cyclodextrin vesicles dispersed in water by sonication; conditions: sonicated 2 hours (HE-SC12 room temperature, HE-SC16 50° C.)
Protocol: as §1

[4] = Differential scanning calorimetry of a 10% (w/w) dispersion in water
Protocol: Heptakis(6-hexadecylthio-2-oligoethylenoxy)-β-cyclodextrin was analysed using differential scanning calorimetry. […] The transition occurred around 48-49° C. and the enthalpy of transition amounted to 59 kJ/mol cyclodextrin. This typical Lβ-L[…] transition was confirmed in a measurement of the fluorescence polarisation of diphenylhexatriene in the presence of a vesicle solution by a standard method (R. R. C. New, Liposomes: a practical approach, Oxford University Press, 1990). Thus, vesicles of the amphiphilic cyclodextrins undergo thermotropic phase transitions which depend on molecular structure, and which can direct important parameters such as vesicle stability and bilayer permeability.

[5] = Spontaneous release of carboxyfluorescein from gel-filtered vesicles over time; conditions: room temperature, after 3 days
Protocol: as §2
(ii) CF entrapped in the vesicles was separated from free (non-entrapped) CF by gel filtration using Sephadex G25. […] The peak of entrapped CF coincided with the elution of vesicles (FIG. 4). This confirms the existence of an aqueous inner compartment within the vesicles. Furthermore, as anticipated, the amount of entrapped CF in cyclodextrin vesicles correlated with the cyclodextrin concentration.
(iii) The spontaneous release of CF from vesicles of HE-SC16 (separated from free CF by gel filtration) was measured over time. At room temperature, the leakage of CF was limited, and the vesicles retained more than 75% of CF after 3 days (FIG. 5).

| Substance | average diameter of spherical vesicles after prolonged sonication [1] [nm] | entrapped volume of the vesicles relative to the total volume of the solution [2] | average diameter of vesicles (dynamic light scattering) [3] [nm] | endothermic phase transition temperature (DSC heating scan) [4] | enthalpy of transition [4] [kJ/mol cyclodextrin] | CF retained by vesicles [5] |
| --- | --- | --- | --- | --- | --- | --- |
| heptakis(6-dodecylthio-2-oligoethylenoxy)-β-cyclodextrin [HE-SC12] | 60 | 5.0+/−2.4% and 7.2+/−5.3% | 170 |  |  |  |
| heptakis(6-hexadecylthio-2-oligoethylenoxy)-β-cyclodextrin [HE-SC16] |  | 7.7+/−1.9% and 11.4+/−2.7% | 170 | 48-49 °C | 59 | more than 75% |
